The values that follow are results of earlier work, collected in patent US20240226034A1, “Use of Terpenoids and Salicylates as Anesthetics and Analgesics” (THE REGENTS OF THE UNIVERSITY OF CALIFORNIA, priority 2021, published 2024).

This data set has as its system rats. The following applies: antagonism of spinal GABAA receptors in rats; cited from earlier work.

For `FC(F)OC(Cl)C(F)(F)F` (stereo not shown) [isoflurane], the “increase of EC50 for immobilization” value was “up to 40%”.
